# Entries after “also recorded” stand apart in the source; their conditions may differ.
# What was measured:
# Format in all cases: cell-based
# [1] = system: EGFP-α-synuclein A53T aggregates in HEK293T cell line; assay: α-synuclein protein aggregates after overexpression, Western blot; conditions: bafilomycin 100 nM alone compared to the control
# Method: (§1) FIG. 5 is a result of Western blot analysis of the level of α-synuclein protein expression in protein samples obtained 18 h after treatment of HEK293T cells transfected to express α-synuclein with 100 nM bafilomycin A1 alone or in combination with 30 µM of some variant alloferon peptides according to one embodiment of the present invention, for investigating the degradation of α-synuclein protein aggregates by treatment with some variant alloferon peptides (DALS1, DAL-VS_V(−Q), DAL1, and DALV2) according to one embodiment of the present invention.
# (§2) The present inventors then investigated whether some of the variant peptides (DALS1, DALVS_V, DAL1, DALV2) comprising the amino acid sequences designated as SEQ ID NO: 3 through 16 could resolve SOD1 aggregates that formed after transient transfection of SOD1 protein into the 293T cell line. To this end, EGFP-SOD1 G93A DNA was transiently transfected into the HEK293T cell line using Lipofectamine 2000. After transfection, the cell lines were incubated in a cell culture machine at 37° C. and 5% CO2 for 30 h, and the culture medium was replaced with Minimum Essential Medium (MEM, Gibco, USA). Subsequently, the cells were pretreated with 100 nM bafilomycin for 30 min, which were then treated with μM variant alloferon peptide and incubated for 18 h. […] Then, it was subjected to protein quantification using BCA protein assay kit (Pierce Biotechnology, USA), and centrifuged at 17,000×g for 20 min, where the supernant was discarded and only the cell debris was taken to obtain protein. Subsequently, 5× sample buffer (300 mM Tris, pH 6.8, 10% SDS, 50% Glycerol, 0.1% BPB, 2.5% Mercaptoethanol, 100 mM DTT) was mixed with the quantified sample, denatured at 95° C. for 5 min, and prepared for analysis. […] Protein signals were detected using enhanced chemiluminescence (INTRON Biotechnology, South Korea) and a bio-imaging system (MF-Chemibis, Shimadzu Scientific Korea Corporation, South Korea). […]
# [2] = system: H4 cell lines (GL-H4) expressing GFP-linked LC3; assay: Analysis of autophagic flow blocked by bafilomycin A-1 (LC3-GFP spots); conditions: bafilomycin (Baf A1) 100 nM alone, GL-H4 cells
# Method: FIGS. 2A to 2C are series of fluorescence micrographs of LC3-GFP spots 12 h after treating H4 cell line (GL-H4) that stably overexpresses GFP-LC3 protein with various variant alloferon peptides according to one embodiment of the present invention in combination with bafilomycin at a concentration of 20 μM, showing that autophagic flux blocked by bafilomycin A-1 is restored by the variant alloferon peptides according to one embodiment of the present invention. FIGS. 2D to 2F are graphs showing quantification of the fluorescence intensity of LC3-GFP spots 12 h after treatment of the GL-H4 cell line with the variant alloferon peptides according to one embodiment of the present invention in combination with bafilomycin at a concentration of 20 μM.
# H4 cell line (GL-H4) and HEK293T cell line permanently transfected with GFP-LC3 plasmid were used in the present invention. The cell culture medium was Minimum Essential Medium (MEM, WellGene) supplemented with 10% fetal bovine serum (Hyclone, USA) and antibiotic and antifungal mixture (WellGene, Korea) and cultured in a cell culture machine at 37° C. and 5% CO2.
# To investigate the effect of peptides comprising the amino acid sequences designated as SEQ ID NO: 3 to 16 on autophagic flow, the present inventors treated H4 cell lines (GL-H4) expressing GFP-linked LC3 with the peptides (20 μM) and/or the autophagic inhibitor Bafilomycin A-1 (Baf A1, 100 nM) to inhibit autophagy, and then the effect of the variant alloferon peptides according to one embodiment of the present invention was investigated by fluorescence microscopy analysis.
# [3] = system: GFP-mHttQ74 aggregates in HEK293T cell line; assay: Mutant huntingtin protein aggregates after overexpression, Western blot; conditions: bafilomycin 100 nM alone compared to the control
# Method: as §1, with “FIG. 6” for “FIG. 5”, “of mutant huntingtin” for “of α-synuclein”, “express mutant huntingtin protein” for “express α-synuclein”, “30 μM” for “30 µM”
# as §2
# [4] = system: EGFP-SOD1 G93A aggregates in HEK293T cell line; assay: SOD1 protein aggregates after SOD1 overexpression, Western blot; conditions: bafilomycin 100 nM alone compared to the control
# Method: as §1, with “3A” for “5”, “SOD1” for “α-synuclein”, “μM” for “µM”, “invention. FIG. 3B is a graph representing the results of quantifying relative expression of the SOD1 protein. In FIG. 3B, * indicates a significant difference compared to the treatment with bafilomycin alone (* p<0.05).” for “invention.”
# The present inventors then investigated whether some of the variant peptides (DALS1, DALVS_V, DAL1, DALV2) comprising the amino acid sequences designated as SEQ ID NO: 3 through 16 could resolve SOD1 aggregates that formed after transient transfection of SOD1 protein into the 293T cell line. To this end, EGFP-SOD1 G93A DNA was transiently transfected into the HEK293T cell line using Lipofectamine 2000. After transfection, the cell lines were incubated in a cell culture machine at 37° C. and 5% CO2 for 30 h, and the culture medium was replaced with Minimum Essential Medium (MEM, Gibco, USA). Subsequently, the cells were pretreated with 100 nM bafilomycin for 30 min, which were then treated with μM variant alloferon peptide and incubated for 18 h. After that, proteinase inhibitors and phosphatase inhibitors (2 μg/ml aprotinin, 2 μg/ml leupeptin, 1 μg/ml pepstatin A, 1 mM phenyl-methylsulfonyl fluoride (PMSF), 1 mM Na3 VO4, 5 mM NaF and 10 mM Na4P2O7) were put into a 6-well culture dish at 200 μl per well to lyse the cells. The obtained cell lysate was first left at 30 min for 4° C. Then, it was subjected to protein quantification using BCA protein assay kit (Pierce Biotechnology, USA), and centrifuged at 17,000×g for 20 min, where the supernant was discarded and only the cell debris was taken to obtain protein. Subsequently, 5× sample buffer (300 mM Tris, pH 6.8, 10% SDS, 50% Glycerol, 0.1% BPB, 2.5% Mercaptoethanol, 100 mM DTT) was mixed with the quantified sample, denatured at 95° C. for 5 min, and prepared for analysis. Then, electrophoresis was performed using 8% to 15% SDS-polyacrylamide gel, and the proteins separated by their sizes were transferred to polyvinylidene difluoride (PVDF) membranes (Millipore, USA). The protein-transferred membranes were then blocked with 3% skim milk powder in TBST for 1 h. […] Protein signals were detected using enhanced chemiluminescence (INTRON Biotechnology, South Korea) and a bio-imaging system (MF-Chemibis, Shimadzu Scientific Korea Corporation, South Korea).
# [5] = system: EGFP-Tau P301L aggregates in HEK293T cell line; assay: Mutant tau protein aggregates after overexpression, Western blot; conditions: bafilomycin 100 nM alone compared to control
# Method: as §1, with “FIG. 4A” for “FIG. 5”, “of tau” for “of α-synuclein”, “express tau protein” for “express α-synuclein”, “30 μM” for “30 µM”, “invention. FIG. 4B is a graph representing the results of quantifying relative expression of the tau protein. […]” for “invention.”
# The present inventors then investigated whether some of the variant peptides (DALS1, DALVS_V, DAL1, DALV2) comprising the amino acid sequences designated as SEQ ID NO: 3 through 16 could resolve SOD1 aggregates that formed after transient transfection of SOD1 protein into the 293T cell line. […] Then, it was subjected to protein quantification using BCA protein assay kit (Pierce Biotechnology, USA), and centrifuged at 17,000×g for 20 min, where the supernant was discarded and only the cell debris was taken to obtain protein. Subsequently, 5× sample buffer (300 mM Tris, pH 6.8, 10% SDS, 50% Glycerol, 0.1% BPB, 2.5% Mercaptoethanol, 100 mM DTT) was mixed with the quantified sample, denatured at 95° C. for 5 min, and prepared for analysis. […]
smiles,measurement,setting,value
"CO/C1=C\C(C)=C\[C@@H](C)[C@@H](O)[C@@H](C)C/C(C)=C/C=C/[C@H](OC)[C@@H]([C@@H](C)[C@@H](O)[C@H](C)[C@@]2(O)C[C@@H](O)[C@H](C)[C@@H](C(C)C)O2)OC1=O [bafilomycin, Bafilomycin A-1, reference compound]",α-synuclein protein aggregates,[1],increased
same,number and size of LC3 spots,[2],significantly increased; also recorded: significant increase in the number and size of LC3 spots
same,mutant huntingtin protein aggregates,[3],increased
same,SOD1 protein aggregates,[4],increased
same,mutant tau protein aggregates,[5],increased
